Where two headings read alike, the source gives them in different places. Marks after values point to notes of the source that are not given here.
Assays:
PARP [1] = settings: MDA-MB-436 cells in vitro; vehicle 3821.1; P = .034
Experimental: (§1) 25–50 mg of tumor tissue were homogenized per protocol, and lysates were used to quantify PAR (pg/ml) using a chemiluminescent enzyme-linked immunosorbent assay (ELISA) in comparison to provided standards (Trevigen, HT PARP in vivo Pharmacodynamic Assay II, #4520-096-K). PAR values were normalized across models to 100 µg of lysate.
(§2) A 2-way ANOVA with Tukey’s test and P-value correction for multiple comparisons was used to compare tissue levels of niraparib (pharmacokinetics) or PAR (pharmacodynamics). A t-test was used to compare PAR levels in MDA-MB-436 cells treated in vitro (GraphPad Prism, v7.04)

SUM149 [2] = settings: read-out: 5–7 day CC50; cited from earlier work
PARP [3] = settings: in vivo, niraparib daily 2 weeks
Experimental: For efficacy studies, treatment started at day 7 for MDA-MB-231Br, day 14 for SUM149, and day 14 for MDA-MB-436. […] For efficacy studies, mice were given a daily oral gavage of 50 mg/kg niraparib or vehicle (0.5% methylcellulose). To determine median survival, animals were sacrificed when weights decreased […] of an individual mouse’s maximum weight. For pharmacodynamic and pharmacokinetic studies, mice were grouped and treated as in efficacy studies for 2 weeks. At 4 h from last niraparib dose, IC tumor, peri-tumoral tissue (2 mm around the perimeter of a tumor), and contralateral brain were dissected, snap frozen, and stored frozen for each mouse and stored at –80°C.
as §1, §2

MDA-MB-231Br = settings: intracranial MDA-MB-231Br
Experimental: (§3) All animal studies protocols were approved by the University of North Carolina (UNC), Chapel Hill Institutional Animal Care and Use Committee, executed by the UNC Animal Studies Core, and performed as described previously.[23],[27] For IC injections, cells were harvested in log-phase growth and suspended in Hank's Balanced Salt Solution + 0.5% FBS. Eight- to 10-week Foxn1 nu/nu female mice (UNC Animal Studies Core) were implanted with 200 000 cells/5 µl of suspension through stereotactic IC injection in the right striatum. Animal weights were collected from injection to death 3 times weekly. To determine tumor volumes, mice were anesthetized, injected intraperitoneally with D-luciferin dissolved in phosphate-buffered saline (150 mg/kg; Caliper Life Sciences, Hopkinton, MA), and then imaged by IVIS Lumina camera (Caliper Life Sciences). Images were analyzed with Living Image 4.0 software (Caliper Life Sciences). All values were corrected for background and recorded as photons/s.
(§4) For efficacy studies, mice were given a daily oral gavage of 50 mg/kg niraparib or vehicle (0.5% methylcellulose). To determine median survival, animals were sacrificed when weights decreased […] of an individual mouse’s maximum weight. For pharmacodynamic and pharmacokinetic studies, mice were grouped and treated as in efficacy studies for 2 weeks. At 4 h from last niraparib dose, IC tumor, peri-tumoral tissue (2 mm around the perimeter of a tumor), and contralateral brain were dissected, snap frozen, and stored frozen for each mouse and stored at –80°C.
(§5) The Kaplan–Meier method and log-rank test were used to estimate and compare median survival between treatment groups.
(§6) Both fold change in tumor volumes and weight over time were determined relative to treatment start date. Linear mixed models, with a random intercept and slope, were used to evaluate changes over time, overall and between groups (SAS, v9.3)

SUM149 [4] = system: SUM149
Experimental: as §3, §4, §5, §6

MDA-MB-436 [5] = system: MDA-MB-436
Experimental: as §3, §4, §5, §6

[6] = system: cells with BRCA1/BRCA2 deficiencies; settings: read-out: in vitro CC50; cited from earlier work
MDA-MB-436 [7] = settings: read-out: 5–7 day CC50; cited from earlier work
PARP1/2 = settings: read-out: in vitro IC50s; dual PARP1/2 inhibitor; cited from earlier work
[8] = mouse, in vivo
MDA-MB-436 [9] = settings: subcutaneous flank model, female nude mice, 100 mg/kg once daily or 50 mg/kg twice daily; cited from earlier work

## NC(=O)c1cccc2cn(-c3ccc([C@@H]4CCCNC4)cc3)nc12 [niraparib, 2-{4-[(3S)-piperidin-3-yl]phenyl}-2H-indazole-7-carboxamide]
PARP [1]
  PAR levels, mean: 248.2* picogram PAR per microgram tissue
SUM149 [2]
  CC50: […]
PARP [3]; intracranial MDA-MB-436 tumors, vehicle 195.2, P = .99
  PAR levels, mean: […]
PARP [3]; intracranial SUM149 tumors, vehicle 4054.5, P = .0027
  PAR levels, mean: 433.1* picogram PAR per microgram tissue
MDA-MB-231Br; 50 mg/kg daily oral gavage, P = .21 vs vehicle (23 days)
  median survival: 22 days
MDA-MB-231Br; 50 mg/kg daily, P = .21
  weight changes vs vehicle: did not differ significantly
MDA-MB-231Br; 50 mg/kg daily, P = .7
  tumor volumes measured by luciferase activity vs vehicle: did not differ significantly
SUM149 [4]; intracranial SUM149, 50 mg/kg daily oral gavage, P = .30 vs vehicle (33 days)
  median survival: […]
SUM149 [4]; intracranial SUM149, 50 mg/kg daily, P = .06
  tumor volumes measured by luciferase activity vs vehicle: did not differ significantly
SUM149 [4]; intracranial SUM149, 50 mg/kg daily, P = .14
  weight changes vs vehicle: did not differ significantly
MDA-MB-436 [5]; intracranial MDA-MB-436, 50 mg/kg daily, control mice lost weight, P < .0001
  body weight: maintained normal weight
MDA-MB-436 [5]; intracranial MDA-MB-436, 50 mg/kg daily, day 70, end of study
  mice alive at day 70: […]
MDA-MB-436 [5]; intracranial MDA-MB-436, 50 mg/kg daily, for the extent of the experiment
  suppression of tumor bioluminescence: greater than 90%
MDA-MB-436 [5]; intracranial MDA-MB-436, 50 mg/kg daily, study ended day 70, untreated median 50 days, P < .0001
  increase in median survival: […]
MDA-MB-436 [5]; intracranial MDA-MB-436, 50 mg/kg daily, untreated median 50 days
  increase over untreated median survival: […]
MDA-MB-436 [5]; intracranial MDA-MB-436, day 35, after 3 weeks of treatment, control 1.15 × 10^9, P < .0001
  average tumor bioluminescence: […]
[6]
  CC50: […]
MDA-MB-436 [7]
  CC50: 18 nM
PARP1/2
  IC50: […]
[8]
  tolerability: well tolerated
MDA-MB-436 [9]
  in vivo tumor growth: inhibited

From publication PMC7212882, “Efficacy and pharmacodynamics of niraparib in BRCA-mutant and wild-type intracranial triple-negative breast cancer murine models” (Neuro-oncology Advances, 2019)
